US7745413B2, “Collection of traceable compounds and uses thereof” (Centre National de la Recherche Scientifique (CNRS), priority 2004, dated 2010)

Target: T1, GPR50-EGFP receptor (Homo sapiens, UniProt Q13585)
T1 construct: signal peptide (SP) of the pCEP4-SP-EGFP vector (N); expressed in transfected cells
Assay: Real-time measurement of energy transfer (FRET) between fluorescent ligand and GPR50-EGFP receptor on HEK 293 cells
Assay type: binding
Conditions: ligand at 500 nM; excitation 470 nm, fluorescence at 510 nm; FIG. 6
Description: The binding of certain molecules was verified with the spectrofluorimeter (equipment previously described (see Example 1)).

T1 sequence (Q13585 9-617 limits assumed): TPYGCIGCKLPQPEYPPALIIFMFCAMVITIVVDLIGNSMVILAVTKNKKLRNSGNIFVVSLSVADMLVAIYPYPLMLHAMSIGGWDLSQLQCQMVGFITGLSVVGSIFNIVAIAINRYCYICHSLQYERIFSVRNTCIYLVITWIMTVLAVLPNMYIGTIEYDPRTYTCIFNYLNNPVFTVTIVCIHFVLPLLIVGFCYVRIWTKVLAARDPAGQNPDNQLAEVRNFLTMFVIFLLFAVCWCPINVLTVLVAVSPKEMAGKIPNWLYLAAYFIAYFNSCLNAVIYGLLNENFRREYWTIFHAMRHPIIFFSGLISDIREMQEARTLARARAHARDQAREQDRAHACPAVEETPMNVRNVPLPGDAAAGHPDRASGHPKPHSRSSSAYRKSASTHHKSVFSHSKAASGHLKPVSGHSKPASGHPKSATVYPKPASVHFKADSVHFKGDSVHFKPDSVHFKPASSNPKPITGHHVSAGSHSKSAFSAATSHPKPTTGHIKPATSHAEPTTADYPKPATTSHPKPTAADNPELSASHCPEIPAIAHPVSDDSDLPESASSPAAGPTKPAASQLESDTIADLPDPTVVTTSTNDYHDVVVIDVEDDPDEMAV

- energy transfer: 2%
Compound: CCN(CCN(CC)C(=O)C(Cc1c[nH]c2ccccc12)NC(=O)C(CCCCNS(=O)(=O)c1ccc2c(c1)S(=O)(=O)OC21c2ccc(N(CC)CC)cc2Oc2cc(N(CC)CC)ccc21)NC(=O)C1=CCCN(C)C1)Cc1ccccc1 (stereo not shown) [FG 229 F4]
